Assay results published in PubChem BioAssay AID2060903 (Molecular Pharmacology Branch, DTP, NCI, 2025).
Each block holds one compound with its values, some of them ahead of it.

System: 377384-186-R-J1-PDC complex spheroid viability
Test: Anticancer human tumor 377384-186-R-J1-PDC patient-derived pancreatic carcinoma cell line growth inhibition [RAS]
Settings: for IC50: curve of first compound; for viability, T/C: stronger effect = lower value
Summary of the method: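 Multi-cell-type spheroids: tumor cells plus HUVEC endothelial cells and mesenchymal stem cells. RAS-pathway inhibitors were combined with targeted agents, each dosed in half-log steps down from clinical Cmax, or from 10 microM when Cmax was unknown.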

[1] = second compound 0.00316 µM, first compound 0.0316 µM
[2] = second compound 0.00316 µM, first compound 0.1 µM
[3] = second compound 0.00316 µM, first compound 0.316 µM
[4] = second compound 0.00316 µM, first compound 1 µM
[5] = second compound 0.00316 µM, first compound 3.16 µM
[6] = second compound 0.00316 µM, first compound 10 µM
[7] = second compound 0.01 µM, first compound 0.0316 µM
[8] = second compound 0.01 µM, first compound 0.1 µM
[9] = second compound 0.01 µM, first compound 0.316 µM
[10] = second compound 0.01 µM, first compound 1 µM
[11] = second compound 0.01 µM, first compound 3.16 µM
[12] = second compound 0.01 µM, first compound 10 µM
[13] = second compound 0.0316 µM, first compound 0.0316 µM
[14] = second compound 0.0316 µM, first compound 0.1 µM
[15] = second compound 0.0316 µM, first compound 0.316 µM
[16] = second compound 0.0316 µM, first compound 1 µM
[17] = second compound 0.0316 µM, first compound 3.16 µM
[18] = second compound 0.0316 µM, first compound 10 µM
[19] = second compound 0.1 µM, first compound 0.0316 µM
[20] = second compound 0.1 µM, first compound 0.1 µM
[21] = second compound 0.1 µM, first compound 0.316 µM
[22] = second compound 0.1 µM, first compound 1 µM
[23] = second compound 0.1 µM, first compound 3.16 µM
[24] = second compound 0.1 µM, first compound 10 µM
[25] = second compound 0.316 µM, first compound 0.0316 µM
[26] = second compound 0.316 µM, first compound 0.1 µM
[27] = second compound 0.316 µM, first compound 0.316 µM
[28] = second compound 0.316 µM, first compound 1 µM
[29] = second compound 0.316 µM, first compound 3.16 µM
[30] = second compound 0.316 µM, first compound 10 µM
[31] = second compound 1 µM, first compound 0.0316 µM
[32] = second compound 1 µM, first compound 0.1 µM
[33] = second compound 1 µM, first compound 0.316 µM
[34] = second compound 1 µM, first compound 1 µM
[35] = second compound 1 µM, first compound 3.16 µM
[36] = second compound 1 µM, first compound 10 µM
[37] = second compound 0.00316 µM, first compound 0.00316 µM
[38] = second compound 0.00316 µM, first compound 0.01 µM
[39] = second compound 0.01 µM, first compound 0.00316 µM
[40] = second compound 0.01 µM, first compound 0.01 µM
[41] = second compound 0.0316 µM, first compound 0.00316 µM
[42] = second compound 0.0316 µM, first compound 0.01 µM
[43] = second compound 0.1 µM, first compound 0.00316 µM
[44] = second compound 0.1 µM, first compound 0.01 µM
[45] = second compound 0.316 µM, first compound 0.00316 µM
[46] = second compound 0.316 µM, first compound 0.01 µM
[47] = second compound 1 µM, first compound 0.00316 µM
[48] = second compound 1 µM, first compound 0.01 µM
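Also: spheroids exposed to compounds for seven days before readout.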

SMILES: CC(C)n1nc(-c2ccc3oc(N)nc3c2)c2c(N)ncnc21 + C=CC(=O)N1CCN(c2nc(OCC3CCCN3C)nc3c(F)c(-c4nc(N)cc(C)c4C(F)(F)F)c(Cl)cc23)C(C)C1
IC50 (second compound 0.00316 µM): 0.0122 µM
IC50 (second compound 0.01 µM): 0.015 µM
IC50 (second compound 0.0316 µM): 0.0157 µM
IC50 (second compound 0.1 µM): 0.0113 µM
IC50 (second compound 0.316 µM): 0.0127 µM
IC50 (second compound 1 µM): 0.0152 µM
viability, T/C (second compound 0.00316 µM, first compound 0.000316 µM): 93.6%
viability, T/C (second compound 0.00316 µM, first compound 0.001 µM): 80.3%
viability, T/C [37]: 76%
viability, T/C [38]: 50.8%
viability, T/C [1]: 35.4%
viability, T/C [2]: 21.1%
viability, T/C (second compound 0.01 µM, first compound 0.000316 µM): 87.2%
viability, T/C (second compound 0.01 µM, first compound 0.001 µM): 83.1%
viability, T/C [39]: 68.2%
viability, T/C [40]: 59.4%
viability, T/C [7]: 36.6%
viability, T/C [8]: 19.9%
viability, T/C (second compound 0.0316 µM, first compound 0.000316 µM): 90.5%
viability, T/C (second compound 0.0316 µM, first compound 0.001 µM): 76.3%
viability, T/C [41]: 64.7%
viability, T/C [42]: 61.8%
viability, T/C [13]: 40%
viability, T/C [14]: 17.4%
viability, T/C (second compound 0.1 µM, first compound 0.000316 µM): 91.5%
viability, T/C (second compound 0.1 µM, first compound 0.001 µM): 77.2%
viability, T/C [43]: 67.4%
viability, T/C [44]: 50.5%
viability, T/C [19]: 37.9%
viability, T/C [20]: 23.7%
viability, T/C (second compound 0.316 µM, first compound 0.000316 µM): 81.3%
viability, T/C (second compound 0.316 µM, first compound 0.001 µM): 82.2%
viability, T/C [45]: 70%
viability, T/C [46]: 48.5%
viability, T/C [25]: 40%
viability, T/C [26]: 18%
viability, T/C (second compound 1 µM, first compound 0.000316 µM): 89.7%
viability, T/C (second compound 1 µM, first compound 0.001 µM): 89.2%
viability, T/C [47]: 81.7%
viability, T/C [48]: 55.4%
viability, T/C [31]: 37.7%
viability, T/C [32]: 20.4%

SMILES: C[C@@H](NC(=O)c1ncnc(N)c1Cl)c1ncc(C(=O)Nc2cc(C(F)(F)F)c(Cl)cn2)s1 + C=CC(=O)N1CCN(c2nc(OCC3CCCN3C)nc3c(F)c(-c4nc(N)cc(C)c4C(F)(F)F)c(Cl)cc23)C(C)C1
IC50 (second compound 0.00316 µM): > 10 µM
IC50 (second compound 0.01 µM): > 10 µM
IC50 (second compound 0.0316 µM): > 10 µM
IC50 (second compound 0.1 µM): > 10 µM
IC50 (second compound 0.316 µM): > 10 µM
IC50 (second compound 1 µM): > 10 µM
viability, T/C [1]: 90%
viability, T/C [2]: 85.2%
viability, T/C [3]: 83.8%
viability, T/C [4]: 108%
viability, T/C [5]: 120%
viability, T/C [6]: 122%
viability, T/C [7]: 98.5%
viability, T/C [8]: 86.3%
viability, T/C [9]: 102%
viability, T/C [10]: 118%
viability, T/C [11]: 122%
viability, T/C [12]: 131%
viability, T/C [13]: 98.4%
viability, T/C [14]: 87.8%
viability, T/C [15]: 101%
viability, T/C [16]: 118%
viability, T/C [17]: 116%
viability, T/C [18]: 130%
viability, T/C [19]: 84%
viability, T/C [20]: 103%
viability, T/C [21]: 92.3%
viability, T/C [22]: 115%
viability, T/C [23]: 120%
viability, T/C [24]: 124%
viability, T/C [25]: 98.3%
viability, T/C [26]: 87.1%
viability, T/C [27]: 119%
viability, T/C [28]: 115%
viability, T/C [29]: 143%
viability, T/C [30]: 134%
viability, T/C [31]: 93.9%
viability, T/C [32]: 109%
viability, T/C [33]: 110%
viability, T/C [34]: 115%
viability, T/C [35]: 122%
viability, T/C [36]: 118%

Now from value to compound, other results behind:

IC50 (second compound 0.00316 µM): 2.32 µM
IC50 (second compound 0.01 µM): 2.67 µM
IC50 (second compound 0.0316 µM): 2.78 µM
IC50 (second compound 0.1 µM): 2.45 µM
IC50 (second compound 0.316 µM): 1.76 µM
IC50 (second compound 1 µM): 2.06 µM
SMILES: CC(C)NCC(C(=O)N1CCN(c2ncnc3c2C(C)CC3O)CC1)c1ccc(Cl)cc1 (stereo not given) + C=CC(=O)N1CCN(c2nc(OCC3CCCN3C)nc3c(F)c(-c4nc(N)cc(C)c4C(F)(F)F)c(Cl)cc23)C(C)C1
viability, T/C [1]: 80.9%
viability, T/C [2]: 95%
viability, T/C [3]: 87.4%
viability, T/C [4]: 61.7%
viability, T/C [5]: 48.6%
viability, T/C [6]: 32.6%
viability, T/C [7]: 96.8%
viability, T/C [8]: 78.1%
viability, T/C [9]: 73.7%
viability, T/C [10]: 63.3%
viability, T/C [11]: 46.4%
viability, T/C [12]: 35.9%
viability, T/C [13]: 91.3%
viability, T/C [14]: 96.7%
viability, T/C [15]: 70%
viability, T/C [16]: 67.1%
viability, T/C [17]: 47.4%
viability, T/C [18]: 38.1%
viability, T/C [19]: 99.8%
viability, T/C [20]: 85%
viability, T/C [21]: 86.5%
viability, T/C [22]: 58.7%
viability, T/C [23]: 48.2%
viability, T/C [24]: 35.5%
viability, T/C [25]: 89.4%
viability, T/C [26]: 102%
viability, T/C [27]: 80.9%
viability, T/C [28]: 56%
viability, T/C [29]: 47.8%
viability, T/C [30]: 35%
viability, T/C [31]: 91.8%
viability, T/C [32]: 97%
viability, T/C [33]: 75.1%
viability, T/C [34]: 61.7%
viability, T/C [35]: 44.4%
viability, T/C [36]: 32.8%

IC50 (second compound 0.00316 µM): 0.739 µM
IC50 (second compound 0.01 µM): 0.575 µM
IC50 (second compound 0.0316 µM): 0.443 µM
IC50 (second compound 0.1 µM): 0.775 µM
IC50 (second compound 0.316 µM): 0.255 µM
IC50 (second compound 1 µM): 0.647 µM
SMILES: CC(Nc1ccc2c(c1)OCCn1cc(N3C(=O)OCC3C(F)F)nc1-2)C(N)=O (stereo not given) + C=CC(=O)N1CCN(c2nc(OCC3CCCN3C)nc3c(F)c(-c4nc(N)cc(C)c4C(F)(F)F)c(Cl)cc23)C(C)C1
viability, T/C [1]: 73.4%
viability, T/C [2]: 72.2%
viability, T/C [3]: 52.8%
viability, T/C [4]: 48.1%
viability, T/C [5]: 38.4%
viability, T/C [6]: 28.4%
viability, T/C [7]: 76.8%
viability, T/C [8]: 63.5%
viability, T/C [9]: 54.8%
viability, T/C [10]: 46.6%
viability, T/C [11]: 37.9%
viability, T/C [12]: 32.8%
viability, T/C [13]: 86.2%
viability, T/C [14]: 68.2%
viability, T/C [15]: 55.7%
viability, T/C [16]: 40.3%
viability, T/C [17]: 34.2%
viability, T/C [18]: 32.1%
viability, T/C [19]: 78.9%
viability, T/C [20]: 73.3%
viability, T/C [21]: 60.5%
viability, T/C [22]: 45%
viability, T/C [23]: 40.1%
viability, T/C [24]: 30.6%
viability, T/C [25]: 89.7%
viability, T/C [26]: 63%
viability, T/C [27]: 43.2%
viability, T/C [28]: 44.8%
viability, T/C [29]: 33.5%
viability, T/C [30]: 32%
viability, T/C [31]: 79.2%
viability, T/C [32]: 68.2%
viability, T/C [33]: 53.5%
viability, T/C [34]: 48.4%
viability, T/C [35]: 38%
viability, T/C [36]: 32.2%

IC50 (second compound 0.00316 µM): 0.0425 µM
IC50 (second compound 0.01 µM): 0.033 µM
IC50 (second compound 0.0316 µM): 0.0367 µM
IC50 (second compound 0.1 µM): 0.0373 µM
IC50 (second compound 0.316 µM): 0.0406 µM
IC50 (second compound 1 µM): 0.0451 µM
SMILES: O=C(c1ccc(F)c(F)c1Nc1ccc(I)cc1F)N1CC(O)([C@@H]2CCCCN2)C1 + C=CC(=O)N1CCN(c2nc(OCC3CCCN3C)nc3c(F)c(-c4nc(N)cc(C)c4C(F)(F)F)c(Cl)cc23)C(C)C1
viability, T/C [37]: 81.3%
viability, T/C [38]: 79.2%
viability, T/C [1]: 58.5%
viability, T/C [2]: 23.8%
viability, T/C [3]: 3.06%
viability, T/C [4]: 0.45%
viability, T/C [39]: 94.9%
viability, T/C [40]: 77.9%
viability, T/C [7]: 51.3%
viability, T/C [8]: 23.6%
viability, T/C [9]: 2.14%
viability, T/C [10]: 0.43%
viability, T/C [41]: 93.3%
viability, T/C [42]: 73.3%
viability, T/C [13]: 58.9%
viability, T/C [14]: 20%
viability, T/C [15]: 2.38%
viability, T/C [16]: 0.3%
viability, T/C [43]: 94.6%
viability, T/C [44]: 68.5%
viability, T/C [19]: 62.3%
viability, T/C [20]: 20.7%
viability, T/C [21]: 2.8%
viability, T/C [22]: 0.78%
viability, T/C [45]: 77.7%
viability, T/C [46]: 74.7%
viability, T/C [25]: 57.5%
viability, T/C [26]: 22.5%
viability, T/C [27]: 2.78%
viability, T/C [28]: 0.48%
viability, T/C [47]: 88.8%
viability, T/C [48]: 80.8%
viability, T/C [31]: 62%
viability, T/C [32]: 24.5%
viability, T/C [33]: 2.77%
viability, T/C [34]: 0.56%
